In this experiment the target is T1, Nav1.7 (or SCN9A) channel; HEK cells stably transfected with hSCN9A (Homo sapiens, UniProt Q15858).
T1 construct: expressed in transfected cells
Kind of experiment: Nav1.7 block, PatchXpress 7000 automated whole-cell voltage clamp, estimated IC50 (EIC50). In kind it is cell-based. The settings on record: PatchXpress platform, estimated IC50.

Setting [1] is: hSCN9A HEK cells held at V1/2 of inactivation.
Where [2] appears, read: hSCN9A HEK cells, Examples 283-814.

Consider 34 compounds from patent US8541588B2, “Sulfonamide derivatives” (Pfizer Limited, priority 2009, dated 2013).

For orientation: IC50 means the midpoint of a concentration-inhibition curve.

Where a name gives a salt, the structure may show the parent alone.

T1 sequence (Q15858 whole entry): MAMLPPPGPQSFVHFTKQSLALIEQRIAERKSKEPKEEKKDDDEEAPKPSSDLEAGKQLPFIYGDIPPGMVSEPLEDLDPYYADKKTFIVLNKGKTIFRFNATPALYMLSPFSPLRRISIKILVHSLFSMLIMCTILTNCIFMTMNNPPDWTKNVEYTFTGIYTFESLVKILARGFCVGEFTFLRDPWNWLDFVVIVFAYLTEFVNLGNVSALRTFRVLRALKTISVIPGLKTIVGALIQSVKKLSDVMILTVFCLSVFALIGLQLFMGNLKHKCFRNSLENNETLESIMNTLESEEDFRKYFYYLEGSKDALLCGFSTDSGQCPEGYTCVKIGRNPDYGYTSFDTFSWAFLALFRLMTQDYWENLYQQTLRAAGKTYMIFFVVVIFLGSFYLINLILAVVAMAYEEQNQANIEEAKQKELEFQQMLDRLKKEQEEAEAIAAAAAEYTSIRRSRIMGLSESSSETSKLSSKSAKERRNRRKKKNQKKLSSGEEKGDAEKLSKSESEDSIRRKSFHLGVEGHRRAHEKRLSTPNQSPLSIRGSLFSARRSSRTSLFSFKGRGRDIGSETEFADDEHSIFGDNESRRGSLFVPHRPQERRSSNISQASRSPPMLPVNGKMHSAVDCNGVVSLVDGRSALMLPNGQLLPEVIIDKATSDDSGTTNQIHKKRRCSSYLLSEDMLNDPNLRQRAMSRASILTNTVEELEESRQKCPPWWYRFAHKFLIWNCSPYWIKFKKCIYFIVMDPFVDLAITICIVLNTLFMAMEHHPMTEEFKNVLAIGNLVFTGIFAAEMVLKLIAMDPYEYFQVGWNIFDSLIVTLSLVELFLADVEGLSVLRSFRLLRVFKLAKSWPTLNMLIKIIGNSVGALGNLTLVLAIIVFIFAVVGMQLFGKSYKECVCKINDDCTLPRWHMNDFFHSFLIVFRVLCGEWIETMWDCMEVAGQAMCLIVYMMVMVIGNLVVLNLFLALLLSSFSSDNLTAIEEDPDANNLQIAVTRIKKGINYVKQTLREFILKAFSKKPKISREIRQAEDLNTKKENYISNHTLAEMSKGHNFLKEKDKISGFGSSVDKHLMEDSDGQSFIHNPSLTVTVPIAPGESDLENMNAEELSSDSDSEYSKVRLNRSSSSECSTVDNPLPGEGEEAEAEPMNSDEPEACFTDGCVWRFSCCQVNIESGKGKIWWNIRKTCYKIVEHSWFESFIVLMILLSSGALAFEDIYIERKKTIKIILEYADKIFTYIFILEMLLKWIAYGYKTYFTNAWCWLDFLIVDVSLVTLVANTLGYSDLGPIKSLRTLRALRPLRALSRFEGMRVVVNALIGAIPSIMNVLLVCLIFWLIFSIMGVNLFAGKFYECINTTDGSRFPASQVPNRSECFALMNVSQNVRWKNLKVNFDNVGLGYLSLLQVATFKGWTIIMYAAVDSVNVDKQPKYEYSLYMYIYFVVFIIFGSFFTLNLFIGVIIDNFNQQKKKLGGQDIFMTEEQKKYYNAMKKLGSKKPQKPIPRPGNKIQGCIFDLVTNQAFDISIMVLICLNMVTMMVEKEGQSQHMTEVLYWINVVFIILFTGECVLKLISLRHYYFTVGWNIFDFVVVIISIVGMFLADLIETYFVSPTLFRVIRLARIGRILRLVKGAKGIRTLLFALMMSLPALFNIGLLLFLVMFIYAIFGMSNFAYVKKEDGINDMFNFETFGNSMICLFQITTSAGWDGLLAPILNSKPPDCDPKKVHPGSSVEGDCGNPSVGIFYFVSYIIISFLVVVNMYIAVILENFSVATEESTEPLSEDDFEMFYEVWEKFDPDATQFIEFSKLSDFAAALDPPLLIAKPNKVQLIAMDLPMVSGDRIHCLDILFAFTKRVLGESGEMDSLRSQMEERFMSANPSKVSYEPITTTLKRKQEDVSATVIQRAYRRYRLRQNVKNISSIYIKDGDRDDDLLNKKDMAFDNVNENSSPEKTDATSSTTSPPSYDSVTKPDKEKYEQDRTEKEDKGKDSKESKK

`N#Cc1cc(Oc2ccccc2-c2ccccc2)ccc1S(=O)(=O)Nc1ncns1` [Example 268, 4-(biphenyl-2-yloxy)-2-cyano-N-1,2,4-thiadiazol-5-ylbenzenesulfonamide]: under setting [1], the 50% inhibitory concentration (IC50) was 3060 nM.
Still for that read-out and setting: as for `O=S(=O)(Nc1ncns1)c1ccc(Oc2ccccc2-c2ccccc2)c(F)c1F` [Example 269, 4-(biphenyl-2-yloxy)-2,3-difluoro-N-1,2,4-thiadiazol-5-ylbenzenesulfonamide], the figure is 480 nM; as for `O=S(=O)(Nc1ncns1)c1cc(Cl)c(Oc2ccccc2-c2ccccc2)cc1F` [Example 270, 4-(biphenyl-2-yloxy)-5-chloro-2-fluoro-N-1,2,4-thiadiazol-5-ylbenzenesulfonamide], 30 nM.
Same read-out and setting: as for `O=S(=O)(Nc1cscn1)c1ccc(Oc2ccccc2-c2ccccc2)c(F)c1` [Example 271, 4-(biphenyl-2-yloxy)-3-fluoro-N-thiazol-4-yl-benzenesulfonamide], the figure is 1150 nM.
On the same count and under the same terms, the figure for `Cn1nccc1-c1cc(Cl)ccc1Oc1ccc(S(=O)(=O)Nc2cscn2)cc1F` [Example 272, 4-[4-chloro-2-(2-methyl-2H-pyrazol-3-yl)-phenoxy]-3-fluoro-N-thiazol-4-yl-benzenesulfonamide] is 810 nM.
As for `O=S(=O)(Nc1cscn1)c1ccc(Oc2ccc(-c3ccccc3)cc2)c(F)c1` [Example 273, 4-(biphenyl-4-yloxy)-3-fluoro-N-thiazol-4-yl-benzenesulfonamide], the IC50 under setting [1] was 2170 nM.
Same read-out and setting: the figure for `O=S(=O)(Nc1cscn1)c1ccc(Oc2cc(C(F)(F)F)nn2-c2ccccc2)c(F)c1` [Example 274, 3-fluoro-4-(2-phenyl-5-trifluoromethyl-2H-pyrazol-3-yloxy)-N-thiazol-4-yl-benzenesulfonamide] is greater than 10000 nM; for `Cn1nccc1-c1cc(Cl)ccc1Oc1ccc(S(=O)(=O)Nc2ncc(F)s2)cc1F` [Example 275, 4-[4-chloro-2-(2-methyl-2H-pyrazol-3-yl)-phenoxy]-3-fluoro-N-(5-fluoro-thiazol-2-yl)-benzenesulfonamide] it is 70 nM; for `O=S(=O)(Nc1nccs1)c1ccc(Oc2ccccc2-c2ccccc2)cc1` [Example 276, 4-(biphenyl-2-yloxy)-N-thiazol-2-yl-benzenesulfonamide] it is 550 nM.
Same read-out and setting: as for `Cc1cc(Oc2ccc(S(=O)(=O)Nc3nccs3)cc2)n(-c2ccccc2)n1` [Example 277, 4-(5-methyl-2-phenyl-2H-pyrazol-3-yloxy)-N-thiazol-2-yl-benzenesulfonamide], the figure is 1110 nM; as for `O=S(=O)(Nc1nccs1)c1ccc(Oc2ccccc2-c2ccccc2)nc1` [Example 278, 6-(biphenyl-2-yloxy)-pyridine-3-sulfonic acid thiazol-2-ylamide], 2660 nM; as for `CC(C)(C)n1nc(C(F)(F)F)cc1-c1ccc(Oc2ccc(S(=O)(=O)Nc3nccs3)cc2C#N)cc1` [Example 279, 4-[4-(2-tertbutyl-5-trifluoromethyl-2H-pyrazol-3-yl)-phenoxy]-3-cyano-N-thiazol-2-yl-benzenesulfonamide], 70 nM.
On the same count and under the same terms, the figure for `CCn1nc(C(F)(F)F)cc1-c1ccc(Oc2ccc(S(=O)(=O)Nc3nccs3)cc2C#N)cc1` [Example 280, 3-cyano-4-[4-(2-ethyl-5-trifluoromethyl-2H-pyrazol-3-yl)-phenoxy]-N-thiazol-2-yl-benzenesulfonamide] is 90 nM; for `CC(C)(C)n1nc(C(F)(F)F)cc1-c1ccc(Oc2ccc(S(=O)(=O)Nc3ncc(F)s3)cc2C#N)cc1` [Example 281, 4-(4-(1-tert-butyl-3-(trifluoromethyl)-1H-pyrazol-5-yl)phenoxy)-3-cyano-N-(5-fluorothiazol-2-yl)benzenesulfonamide] it is 120 nM.
As for `Cn1nc(C(F)(F)F)cc1-c1ccc(Oc2ccc(S(=O)(=O)Nc3nccs3)cc2C#N)cc1` [Example 282, 3-cyano-4-[4-(2-methyl-5-trifluoromethyl-2H-pyrazol-3-yl)-phenoxy]-N-thiazol-2-yl-benzenesulfonamide], the IC50 under setting [1] was 180 nM.
For `CC(C)n1cc(-c2cc(Cl)ccc2Oc2ccc(S(=O)(=O)Nc3ncns3)cc2C#N)cn1` [Example 283, 4-[4-chloro-2-(1-isopropyl-1H-pyrazol-4-yl)phenoxy]-3-cyano-N-1,2,4-thiadiazol-5-ylbenzenesulfonamide], under setting [2], the IC50 is 580 nM.
`N#Cc1cncc(-c2cc(C(F)(F)F)ccc2Oc2ccc(S(=O)(=O)Nc3ncns3)cc2C#N)c1` [Example 284, 3-cyano-4-[2-(5-cyanopyridin-3-yl)-4-(trifluoromethyl)phenoxy]-N-1,2,4-thiadiazol-5-ylbenzenesulfonamide]: under setting [2], the IC50 was 1600 nM.
Same read-out and setting: the figure for `CC(C)(C)n1nccc1-c1cc(F)ccc1Oc1ccc(S(=O)(=O)Nc2ncns2)cc1C#N` [Example 285, 4-[2-(1-tert-butyl-1H-pyrazol-5-yl)-4-fluorophenoxy]-3-cyano-N-1,2,4-thiadiazol-5-ylbenzenesulfonamide] is 620 nM; for `Cn1ccc(-c2cc(Cl)ccc2Oc2ccc(S(=O)(=O)Nc3ncns3)cc2C#N)n1` [Example 286, 4-[4-chloro-2-(1-methyl-1H-pyrazol-3-yl)phenoxy]-3-cyano-N-1,2,4-thiadiazol-5-ylbenzenesulfonamide] it is 530 nM; for `N#Cc1cc(S(=O)(=O)Nc2ncns2)ccc1Oc1ccc(-n2cc(COC(=O)C(F)(F)F)cn2)cc1` [Example 287, [1-(4-{2-cyano-4-[(1,2,4-thiadiazol-5-ylamino)sulfonyl]phenoxy}phenyl)-1H-pyrazol-4-yl]methyl trifluoroacetate] it is greater than 1000 nM.
Still for that read-out and setting: as for `N#Cc1cc(S(=O)(=O)Nc2ncns2)ccc1Oc1ccc(-n2cc(CO)cn2)cc1` [Example 288, 3-cyano-4-{4-[4-(hydroxymethyl)-1H-pyrazol-1-yl]phenoxy}-N-1,2,4-thiadiazol-5-ylbenzenesulfonamide], the figure is greater than 1000 nM; as for `N#Cc1cc(S(=O)(=O)Nc2ncns2)ccc1Oc1ccc(I)cc1-c1cn[nH]c1` [Example 289, 3-cyano-4-[4-iodo-2-(1H-pyrazol-4-yl)phenoxy]-N-1,2,4-thiadiazol-5-ylbenzenesulfonamide], 390 nM.
Still for that read-out and setting: the figure for `CCn1nc(C(F)(F)F)cc1-c1cccc(Oc2ccc(S(=O)(=O)Nc3nc(C)ns3)cc2C#N)c1` [Example 290, 3-cyano-4-{3-[1-ethyl-3-(trifluoromethyl)-1H-pyrazol-5-yl]phenoxy}-N-(3-methyl-1,2,4-thiadiazol-5-yl)benzenesulfonamide] is 2000 nM; for `CCn1nc(C(F)(F)F)cc1-c1ccc(Oc2ccc(S(=O)(=O)Nc3nc(C)ns3)cc2C#N)cc1` [Example 291, 3-cyano-4-{4-[1-ethyl-3-(trifluoromethyl)-1H-pyrazol-5-yl]phenoxy}-N-(3-methyl-1,2,4-thiadiazol-5-yl)benzenesulfonamide] it is 2500 nM; for `Cn1nc(C(F)(F)F)cc1-c1ccc(Oc2ccc(S(=O)(=O)Nc3nccs3)cc2C#N)c(C#N)c1` [Example 292, 3-cyano-4-{2-cyano-4-[1-methyl-3-(trifluoromethyl)-1H-pyrazol-5-yl]phenoxy}-N-1,3-thiazol-2-ylbenzenesulfonamide] it is 44 nM.
As for `Cn1nc(C(F)(F)F)cc1-c1ccc(Oc2ccc(S(=O)(=O)Nc3ncns3)cc2C#N)c(C#N)c1` [Example 293, 3-cyano-4-{2-cyano-4-[1-methyl-3-(trifluoromethyl)-1H-pyrazol-5-yl]phenoxy}-N-1,2,4-thiadiazol-5-ylbenzenesulfonamide], the IC50 under setting [2] is 93 nM.
For the compound `Cc1nsc(NS(=O)(=O)c2cc(Cl)c(Oc3ccc(Cl)cc3-c3ccnn3C)cc2F)n1` [Example 294, 5-chloro-4-[4-chloro-2-(1-methyl-1H-pyrazol-5-yl)phenoxy]-2-fluoro-N-(3-methyl-1,2,4-thiadiazol-5-yl)benzenesulfonamide], the IC50 under setting [2] was 34 nM.
Still for that read-out and setting: the figure for `Cn1nccc1-c1cc(F)ccc1Oc1cc(F)c(S(=O)(=O)Nc2ccncn2)cc1Cl` [Example 295, 5-chloro-2-fluoro-4-[4-fluoro-2-(1-methyl-1H-pyrazol-5-yl)phenoxy]-N-pyrimidin-4-ylbenzenesulfonamide] is 130 nM; for `Cn1nc(C(F)(F)F)cc1-c1ccc(Oc2cc(F)c(S(=O)(=O)Nc3nccs3)cc2Cl)c(C#N)c1` [Example 296, 5-chloro-4-{2-cyano-4-[1-methyl-3-(trifluoromethyl)-1H-pyrazol-5-yl]phenoxy}-2-fluoro-N-1,3-thiazol-2-ylbenzenesulfonamide] it is 25 nM; for `Cn1nc(C(F)(F)F)cc1-c1ccc(Oc2cc(F)c(S(=O)(=O)Nc3nncs3)cc2Cl)c(C#N)c1` [Example 297, 5-chloro-4-{2-cyano-4-[1-methyl-3-(trifluoromethyl)-1H-pyrazol-5-yl]phenoxy}-2-fluoro-N-1,3,4-thiadiazol-2-ylbenzenesulfonamide] it is 1000 nM.
On the same count and under the same terms, the figure for `Cn1nccc1-c1cc(F)ccc1Oc1cc(F)c(S(=O)(=O)Nc2nncs2)cc1Cl` [Example 298, 5-chloro-2-fluoro-4-[4-fluoro-2-(1-methyl-1H-pyrazol-5-yl)phenoxy]-N-1,3,4-thiadiazol-2-ylbenzenesulfonamide] is 140 nM; for `O=S(=O)(Nc1nncs1)c1cc(Cl)c(Oc2ccc(Cl)cc2-c2ccn[nH]2)cc1F` [Example 300, 5-chloro-4-[4-chloro-2-(1H-pyrazol-5-yl)phenoxy]-2-fluoro-N-1,3,4-thiadiazol-2-ylbenzenesulfonamide] it is 39 nM.
Still for that read-out and setting: as for `Cn1nccc1-c1cc(Cl)ccc1Oc1cc(F)c(S(=O)(=O)Nc2nncs2)cc1F` [Example 301, 4-[4-chloro-2-(1-methyl-1H-pyrazol-5-yl)phenoxy]-2,5-difluoro-N-1,3,4-thiadiazol-2-ylbenzenesulfonamide], the figure is 280 nM; as for `O=S(=O)(Nc1nncs1)c1cc(F)c(Oc2ccc(Cl)cc2-c2ccn[nH]2)cc1F` [Example 302, 4-[4-chloro-2-(1H-pyrazol-5-yl)phenoxy]-2,5-difluoro-N-1,3,4-thiadiazol-2-ylbenzenesulfonamide], 160 nM.
